The molecules below were run against rat MCH-1 (Rattus norvegicus, UniProt P97639) (assay: Radioligand binding assay at cloned rat MCH1 receptor ([3H] Compound A)). Details: cloned rat MCH1 receptor, membranes from Peakr293 cells, 0.08 nM [3H] Compound A; read-out: Ki (nM) rMCH1.
rat MCH-1, sequence (P97639 whole entry): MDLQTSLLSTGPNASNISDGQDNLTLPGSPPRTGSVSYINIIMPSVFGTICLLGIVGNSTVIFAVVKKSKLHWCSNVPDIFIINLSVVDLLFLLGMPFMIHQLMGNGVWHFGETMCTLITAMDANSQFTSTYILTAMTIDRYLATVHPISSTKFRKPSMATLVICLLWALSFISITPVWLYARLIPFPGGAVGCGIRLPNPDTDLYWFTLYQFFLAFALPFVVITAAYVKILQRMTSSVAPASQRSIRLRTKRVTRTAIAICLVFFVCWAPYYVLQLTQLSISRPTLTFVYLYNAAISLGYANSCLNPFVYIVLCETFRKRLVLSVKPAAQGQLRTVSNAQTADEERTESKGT
Parameters: host or cells: Peak rapid 293 (Peakr293) cells, transient calcium phosphate transfection, membranes
For `CC(C)C(=O)Nc1cccc(C2CCN(CC[C@H](NC(=O)c3ccc(Oc4cc(Cl)cc(Cl)c4)[nH]3)c3ccccc3)CC2)c1` [Example 318], the Ki was 251 nM. Work on `CC(C)C(=O)Nc1cccc(C2CCN(CC[C@H](NC(=O)c3cccnc3)c3ccccc3)CC2)c1` [Example 319] yielded a Ki of 89.8 nM. With `CC(C)C(=O)Nc1cccc(C2CCN(CC[C@H](NC(=O)c3ccc(F)c(F)c3)c3ccccc3)CC2)c1` [Example 320] the Ki was 10.6 nM. `CCCc1nn(-c2ccccc2)cc1C(=O)N[C@@H](CCN1CCC(c2cccc(NC(=O)C(C)C)c2)CC1)c1ccccc1` [Example 321] was tested, and the Ki was 50.9 nM. In the case of `CC(C)C(=O)Nc1cccc(C2CCN(CC[C@H](NC(=O)c3ccc(N(C)C)cc3)c3ccccc3)CC2)c1` [Example 322], the Ki is reported as 99.9 nM. In the case of `CC(C)C(=O)Nc1cccc(C2CCN(CC[C@H](NC(=O)c3cccs3)c3ccccc3)CC2)c1` [Example 323], the Ki is reported as 37 nM. `CC(C)C(=O)Nc1cccc(C2CCN(CC[C@H](NC(=O)c3ccc([N+](=O)[O-])o3)c3ccccc3)CC2)c1` [Example 324] gave a Ki of 76.8 nM. With `Cc1onc(-c2ccccc2)c1C(=O)NCCCN1CCC(c2cccc(NC(=O)C(C)C)c2)CC1` [Example 325] the Ki was 29.8 nM. Work on `CC(C)C(=O)Nc1cccc(C2CCN(CC[C@H](NC(=O)c3ccco3)c3ccccc3)CC2)c1` [Example 326] yielded a Ki of 19.2 nM. `CC(C)C(=O)Nc1cccc(C2CCN(CC[C@H](NC(=O)c3cnn(-c4ccc([N+](=O)[O-])cc4)c3C(F)(F)F)c3ccccc3)CC2)c1` [Example 327] gave a Ki of 7.7 nM. `Cc1onc(-c2c(F)cccc2Cl)c1C(=O)NCCCN1CCC(c2cccc(NC(=O)C(C)C)c2)CC1` [Example 328] was tested, and the Ki was 47.6 nM. `CC(C)C(=O)Nc1cccc(C2CCN(CCCNC(=O)c3csc4ccccc34)CC2)c1` [Example 330] was tested, and the Ki was 215 nM. `Cc1onc(-c2ccccc2Cl)c1C(=O)NCCCN1CCC(c2cccc(NC(=O)C(C)C)c2)CC1` [Example 331] gave a Ki of 51.3 nM. With `Cc1onc(-c2c(Cl)cccc2Cl)c1C(=O)NCCCN1CCC(c2cccc(NC(=O)C(C)C)c2)CC1` [Example 332] the Ki was 29 nM. `CC(=O)c1cccc(O[C@H](CN2CCC(c3cccc(NC(=O)C(C)C)c3)CC2)c2ccccc2)c1` [Example 333] gave a Ki of 568 nM. With `CC(=O)c1ccccc1O[C@H](CN1CCC(c2cccc(NC(=O)C(C)C)c2)CC1)c1ccccc1` [Example 334] the Ki was 603 nM. In the case of `CC(C)C(=O)Nc1cccc(C2CCN(C[C@@H](Oc3cccc(Cl)c3)c3ccccc3)CC2)c1` [Example 335], the Ki is reported as 888 nM. `COc1ccc(O[C@H](CN2CCC(c3cccc(NC(=O)C(C)C)c3)CC2)c2ccccc2)cc1OC` [Example 336] showed a Ki of 693 nM. For `CC(C)C(=O)Nc1cccc(C2CCN(C[C@H](Oc3ccc(F)cc3)c3ccccc3)CC2)c1` [Example 337], the Ki was 907 nM. Molecule `COc1cccc(O[C@@H](CN2CCC(c3cccc(NC(=O)C(C)C)c3)CC2)c2ccccc2)c1` [Example 338] has a Ki of 844 nM. `CC(C)C(=O)Nc1cccc(C2CCN(C[C@H](Oc3cccc(Cl)c3)c3ccccc3)CC2)c1` [Example 339] gave a Ki of 890 nM. Work on `CC(=O)c1cccc(O[C@@H](CCN2CCC(c3cccc(NC(=O)C4CC4)c3)CC2)c2ccccc2)c1` [Example 340] yielded a Ki of 15.6 nM. Molecule `CC(=O)c1cccc(OCCCN2CCC(c3cccc(NC(=O)C(C)C)c3)CC2)c1` [Example 341] has a Ki of 256 nM. `CC(=O)c1cccc(OCCCN2CCC(c3cccc(NC(=O)C4CC4)c3)CC2)c1` [Example 342] showed a Ki of 183 nM. Work on `CC(C)C(=O)Nc1cccc(C2CCN(CCCOc3ccccc3F)CC2)c1` [Example 343] yielded a Ki of 195 nM. With `CC(C)C(=O)Nc1cccc(C2CCN(CCCOc3cccc(Cl)c3)CC2)c1` [Example 344] the Ki was 44.6 nM. For `CC(C)C(=O)Nc1cccc(C2CCN(CCCOc3ccc(Cl)cc3)CC2)c1` [Example 345], the Ki was 15.4 nM. Work on `CC(C)C(=O)Nc1cccc(C2CCN(CCCOc3cccc(F)c3)CC2)c1` [Example 346] yielded a Ki of 107 nM. `CC(C)C(=O)Nc1cccc(C2CCN(CCCOc3ccc(F)cc3)CC2)c1` [Example 347] showed a Ki of 54.8 nM. For `CC(C)C(=O)Nc1cccc(C2CCN(CCCOc3ccccc3Cl)CC2)c1` [Example 348], the Ki was 84 nM.

From patent US6727264B1 (Synaptic Pharmaceutical Corporation, priority 2001, dated 2004)
